These results are taken from PMC12032302, “A20 attenuates oxidized self-DNA-mediated inflammation in acute kidney injury” (Signal Transduction and Targeted Therapy, 2025).

One assay has as its target T1, HA-Tri-MUT-NEK7 (Mus musculus, UniProt Q9ES74, K130A/K140A/L132R).
T1 construct: 3×HA; made in house; host or cells: HEK293T
Put plainly: BLI analysis of NEK7 and P-II, HA-Tri-MUT-NEK7. It is filed as binding. Conditions: K130, L132 and K140 mutated, Fig. 7d. The text has this: For BLI analysis, 3×HA-WT-NEK7 or 3×HA-Tri-MUT-NEK7 plasmids were transfected into HEK293T cells. Post-transfection, proteins were purified with HA antibody via coimmunoprecipitation and then eluted with 0.1 M glycine, Ph2.0. Then, samples were neutralized with 3 M NaOH and subjected to BLI analysis.
Mouse HA-NEK7, FlAG-A20, and NLRP3 cDNA were amplified by employing standard PCR techniques from a mouse cDNA library. Subsequently, diverse cDNAs were inserted into mammalian expression vectors pcDNA3.1(+), pRK5, or pCMV6 with 3×Flag or 3×HA tags. For transient transfections, Lipofectamine 3000 was utilized according to the manufacturer’s instructions.
Bio-Layer Interferometry (BLI) analysis
The peptide (Bootech BioScience &Technology) was immobilized separately on Octet® AR2G Biosensors (Sartorius, Lot#2308017311) at a concentration of 400 μg/ml for 500 s. Association and dissociation curves were obtained through the addition of a dilution series of recombinant human NEK7 protein (SinoBiological, CAT#11534-H20B) (39.0625 to 1250 nM) for 120 s followed by dissociation for 120 s. Interference patterns for association or dissociation were measured in real-time to generate a response profile on the Octet® System Octet 96 Red instrument (Sartorius). A 1:1 binding model was used to evaluate the Kinetic parameter.

Assay [1] has as its system AKI mice. As to the kind of experiment: survival of AKI mice. It is filed as in vivo, mouse. Conditions: Cis-treated mice; A20-derived peptide 15 mg/kg i.p., pretreated; n = 10 per group. On the procedure: Aristolochic acid I sodium salt was dissolved in PBS to 1 mg/mL and injected intraperitoneally at a dose of 10 mg/kg (body weight) every 24 h for 3 days; cisplatin was dissolved in PBS to 1.5 mg/mL for one-time intraperitoneal 25 mg/kg injection; LPS (Sigma, Cat#L2630) was dissolved in PBS to 2.5 mg/mL for one-time intraperitoneal 25 mg/kg injection; deoxyribonuclease I (DNase I, Sigma, Cat#SLBV1446) was dissolved in PBS to 1 mg/mL and injected intraperitoneally at a dose of 10 mg/kg at 4 h before cisplatin or AA I injection and every 24 h after injection. Disulfiram (MedChemExpress, CAS:97-77-8) was diluted in corn oil to 12.5 mg/mL and injected 50 mg/kg intraperitoneally every 24 h after cisplatin or AA I administration. Cu(II) (Sigma, Cat#344419) was dissolved in PBS to 30 µg/mL and administered intraperitoneally 6 h before disulfiram at a dose of 0.15 mg/kg; TNF-α (Peprotech, Cat#315-01 A) was dissolved in PBS to 10 µg/mL and injected at 100 µg/kg once through the caudal vein 24 h before cisplatin injection. Metformin (Sigma, Cat#D150959) was dissolved in PBS to 5 mg/mL and injected intraperitoneally at a dose of 50 mg/kg 24 h before cisplatin or AA I injection and every 24 h after injection. MCC950 (MedChem Express, CAS:256373-96-3) was dissolved in PBS to 5 mg/mL and injected intraperitoneally at a dose of 50 mg/kg 12 h before cisplatin or AA I injection and every 12 h after injection; berberine (APExBIO, Cat#N1368) was dissolved in PBS to 5 mg/mL and 5 mg/kg injected intraperitoneally at 36, 24 and 12 h before cisplatin; A20-derived-peptide was dissolved in ddH2O to 3 mg/mL and injected intraperitoneally at a dose of 15 mg/kg 1 h before cisplatin. To supervise the effects of various treatments on survival time and rate, the mice were observed, and survival curves were generated. To investigate the specific mechanisms, whole blood was retrieved from the orbit, serum was separated through centrifugation on the 4th day, and the mice were then sacrificed by cervical dislocation. Mice were randomly assigned in experiments, while there was no blinding during the animal experiments.

For assay [2], the system named is AKI mice. Put plainly: serum creatinine of AKI mice. To be noted: Cis-treated mice; A20-derived peptide 15 mg/kg i.p., pretreated; n = 5. It is filed as in vivo, mouse. Here is the method: LPS (Sigma, Cat#L2630) was dissolved in PBS to 2.5 mg/mL for one-time intraperitoneal 25 mg/kg injection; deoxyribonuclease I (DNase I, Sigma, Cat#SLBV1446) was dissolved in PBS to 1 mg/mL and injected intraperitoneally at a dose of 10 mg/kg at 4 h before cisplatin or AA I injection and every 24 h after injection. Disulfiram (MedChemExpress, CAS:97-77-8) was diluted in corn oil to 12.5 mg/mL and injected 50 mg/kg intraperitoneally every 24 h after cisplatin or AA I administration. Cu(II) (Sigma, Cat#344419) was dissolved in PBS to 30 µg/mL and administered intraperitoneally 6 h before disulfiram at a dose of 0.15 mg/kg; TNF-α (Peprotech, Cat#315-01 A) was dissolved in PBS to 10 µg/mL and injected at 100 µg/kg once through the caudal vein 24 h before cisplatin injection. […] MCC950 (MedChem Express, CAS:256373-96-3) was dissolved in PBS to 5 mg/mL and injected intraperitoneally at a dose of 50 mg/kg 12 h before cisplatin or AA I injection and every 12 h after injection; berberine (APExBIO, Cat#N1368) was dissolved in PBS to 5 mg/mL and 5 mg/kg injected intraperitoneally at 36, 24 and 12 h before cisplatin; […] To supervise the effects of various treatments on survival time and rate, the mice were observed, and survival curves were generated. To investigate the specific mechanisms, whole blood was retrieved from the orbit, serum was separated through centrifugation on the 4th day, and the mice were then sacrificed by cervical dislocation. Mice were randomly assigned in experiments, while there was no blinding during the animal experiments. Renal function was evaluated based on serum creatinine level and histological features. Serum creatinine was determined in the Clinical Pharmacology Lab, Clinical Trial Center, WCH, SCU. The kidneys were extracted from euthanized mice, immediately fixed with 4% paraformaldehyde, and embedded in paraffin. Furthermore, the samples were cut into 5 µm thick sections. These tissue samples were subjected to hematoxylin-eosin (HE) and […] according to standard protocols with HE reagent (Biosharp, Cat#BL702B, BL703B) and Masson reagent (Servicebio, Cat#G1006-100ML). The pathological changes were detected through optical microscopy, and the tubulointerstitial injury score was determined as previously reported.

Residues, ends and D or L forms follow the SMILES beside them.

T1 sequence (Q9ES74 whole entry K130A/L132R/K140A): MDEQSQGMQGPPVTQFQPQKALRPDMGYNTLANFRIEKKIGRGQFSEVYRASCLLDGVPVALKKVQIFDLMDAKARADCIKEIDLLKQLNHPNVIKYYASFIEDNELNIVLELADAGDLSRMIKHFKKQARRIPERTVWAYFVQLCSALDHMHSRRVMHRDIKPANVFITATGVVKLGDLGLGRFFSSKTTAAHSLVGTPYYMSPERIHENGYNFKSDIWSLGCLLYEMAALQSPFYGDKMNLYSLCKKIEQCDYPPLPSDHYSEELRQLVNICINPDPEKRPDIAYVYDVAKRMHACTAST

Turning to `CSCC[C@H](NC(=O)[C@H](Cc1ccc(O)cc1)NC(=O)[C@H](CCC(N)=O)NC(=O)[C@H](CS)NC(=O)[C@H](C)NC(=O)[C@H](C)NC(=O)[C@H](Cc1c[nH]cn1)NC(=O)[C@H](CCSC)NC(=O)[C@H](CC(C)C)NC(=O)[C@H](CS)NC(=O)[C@H](CC(N)=O)NC(=O)CNC(=O)[C@H](CC(=O)O)NC(=O)CNC(=O)[C@H](CC(N)=O)NC(=O)[C@@H](NC(=O)[C@H](CCCCN)NC(=O)[C@H](CC(C)C)NC(=O)[C@H](C)NC(=O)[C@@H](NC(=O)[C@H](CC(C)C)NC(=O)[C@@H](N)CCCCN)C(C)C)[C@@H](C)O)C(=O)N[C@@H](Cc1c[nH]c2ccccc12)C(=O)NCC(=O)N[C@H](C(=O)N[C@@H](CCC(N)=O)C(=O)N[C@@H](CC(=O)O)C(=O)N[C@H](C(=O)N[C@@H](CC(=O)O)C(=O)O)[C@@H](C)O)C(C)C` [P-II] (H-KLVALKTNGDGNCLMHAACQYMWGVQDTD-OH; N-terminus and C-terminus assumed), on HA-Tri-MUT-NEK7, the “affinity of NEK7 for P-II, effect of simultaneous mutation of three residues” value is listed as “abrogated the affinity of NEK7 for P-II”. Further, the survival result with AKI mice [1] was “improved the survival of mice”. Further, the “serum creatinine (in words)” value in the assay on AKI mice [2] is recorded as “alleviated the serum creatinine”.
